Results published in PubChem BioAssay (NCI).
Where “and” joins values, the source holds several entries; their conditions need not be identical. Equal values may be shown once.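 Growth conditions: 96-well plates. Treatment: test compound, 48 hours, 5 concentrations. Analysis: linear interpolation between bracketing concentrations; unreached endpoints set to highest concentration. The concentration for 50% growth inhibition is given as GI50. At the TGI there is no net growth.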

Tests used:
Assay in all cases: DTP human tumour cell line panel, 48 h
ACHN renal = tested on: ACHN renal
A498 renal = tested on: A498 renal
SNB-75 CNS = tested on: SNB-75 CNS
KM12 colon = tested on: KM12 colon
UO-31 renal = tested on: UO-31 renal
RXF 393 renal = tested on: RXF 393 renal
OVCAR-3 ovarian = tested on: OVCAR-3 ovarian
DU-145 prostate = tested on: DU-145 prostate
U251 CNS = tested on: U251 CNS
UACC-257 melanoma = tested on: UACC-257 melanoma

| SMILES | GI50 (ACHN renal) [µM] | TGI (ACHN renal) | GI50 (A498 renal) [µM] | TGI (A498 renal) | GI50 (SNB-75 CNS) [µM] | TGI (SNB-75 CNS) | GI50 (KM12 colon) | TGI (KM12 colon) | GI50 (UO-31 renal) [µM] | TGI (UO-31 renal) | GI50 (RXF 393 renal) [µM] | TGI (RXF 393 renal) [µM] | GI50 (OVCAR-3 ovarian) [µM] | TGI (OVCAR-3 ovarian) | GI50 (DU-145 prostate) [µM] | TGI (DU-145 prostate) | GI50 (U251 CNS) [µM] | TGI (U251 CNS) | GI50 (UACC-257 melanoma) [µM] | TGI (UACC-257 melanoma) |
| --- | --- | --- | --- | --- | --- | --- | --- | --- | --- | --- | --- | --- | --- | --- | --- | --- | --- | --- | --- | --- |
| Brc1ccc(Nc2nc3ccccc3nc2Nc2ccc(Br)cc2)cc1 | 0.583 | 3.22 µM | 0.0513 | 2.75 µM | 1.9 | 7.04 µM | 1.4 µM | 8.96 µM | 1.83 | 6.3 µM | 1.49 | 6.38 | 0.401 | 1.54 µM | 0.644 | 12.4 µM | 0.429 | 2.22 µM | 2.01 | 5.9 µM |
| O=C(Nc1ccc(I)cc1)c1cccc([N+](=O)[O-])c1O | 4.16 | > 100 µM | 1.65 | 6.55 µM | 2.77 | 38.6 µM | 4.05 µM | > 100 µM | 2.02 | 8.49 µM | 2.49 | 9.09 | 2.9 | > 100 µM | 6.46 | > 100 µM | 3.39 | > 100 µM | 2.96 | 8.57 µM |
| c1ccc(-c2cn(-c3ccccc3)c(-c3ccccc3)n2)cc1 | 15.4 | 28.7 µM | 15.4 | 28.8 µM | 14 | 27.7 µM | 2.19 µM | 4.67 µM | 11 | 22.9 µM | 17.5 | 33.9 | 6.38 | 18.6 µM | 11.6 | 23.8 µM | 4.08 | 15.9 µM | 13.4 | 26.1 µM |
| COc1cc2c3c(n(CCCN4CCCNCC4)c(=O)c2cc1OC)-c1cc2c(cc1C3=O)OCO2 | 0.193 | 0.751 µM | 1.16 | 13.5 µM | 0.754 | 7.66 µM | 1.21 µM | 5.06 µM | 1.33 | 12.9 µM | 2.53 | 11.5 | 2.52 | 7.66 µM | 0.166 | 2.02 µM | 0.181 | 2.91 µM | 5.85 | 15.9 µM |
| O=[N+]([O-])/C=C/c1cc2ccc3ccccc3c2[nH]1 | – | 2.68 µM | – | 3.16 µM | – | 3.87 µM | – | 3.99 µM | – | 3.05 µM | – | 2.96 | – | 3.11 µM | – | 3.9 µM | – | 2.95 µM | – | 6.45 µM |
| Cn1c(NCC(CN2CCCC2)OC(=O)c2ccccc2)cc(=O)n(C)c1=O (configuration not stated) | > 100 | > 100 µM | > 100 | > 100 µM | > 100 | > 100 µM | – | – | > 100 | > 100 µM | > 100 | > 100 | > 100 | > 100 µM | > 100 | > 100 µM | > 100 | > 100 µM | > 100 | > 100 µM |
| NC(=O)CCc1ccccc1Oc1nccc(-c2c(-c3ccc(F)cc3)ncn2C2CCNCC2)n1 | > 25 | > 25 µM | > 25 | > 25 µM | > 25 | > 25 µM | > 25 µM | > 25 µM | > 25 | > 25 µM | > 25 | > 25 | > 25 | > 25 µM | > 25 | > 25 µM | > 25 | > 25 µM | – | – |
| NS(=O)(=O)c1ccc(N=C2C(=O)Nc3ccccc32)cc1 | – | > 100 µM | – | > 100 µM | – | > 100 µM | – | > 100 µM | – | > 100 µM | – | > 100 | – | > 100 µM | – | > 100 µM | – | > 100 µM | – | > 100 µM |
| C=C1C(=O)OC2CC1C(OC(C)=O)C/C(C)=C/CC/C(C)=C\CCC2(C)O (configuration not stated) | – | 14.9 µM and 7.78 µM | – | 17.1 µM and 21.4 µM | – | 29.7 µM and 24.3 µM | 11.6 µM and 5.11 µM | 32.3 µM and 19.4 µM | – | 18.3 µM and 12.3 µM | – | 14 | – | 21.1 µM and 51.2 µM | – | 14.6 µM and 23.1 µM | – | 25.2 µM and 26.7 µM | – | 18.7 µM and 12.7 µM |
| CS(=N)(=O)CCC(N)P(=O)(O)O (configuration not stated) | – | > 100 µM | – | > 100 µM | – | – | – | > 100 µM | – | > 100 µM | – | > 100 | – | > 100 µM | – | > 100 µM | – | > 100 µM | – | > 100 µM |
| O=C(O)CNCCc1ccccc1 | – | > 100 µM | – | > 100 µM | – | > 100 µM | – | > 100 µM | – | > 100 µM | – | > 100 | – | > 100 µM | – | > 100 µM | – | > 100 µM | – | – |
| N#C/C(=C\c1ccc(F)cc1)n1nc2cccc(F)c2n1 | 5.41 | > 100 µM | 2.04 | 7.25 µM | 2.37 | 8.09 µM | 2.83 µM | > 100 µM | 3.65 | > 100 µM | 2.72 | 27 | 2.75 | > 100 µM | 3.2 | > 100 µM | 3.52 | > 100 µM | – | – |
| CCN(CC)CC(O)COc1c(Br)c(Br)c(Br)c2c1OC(C)(C)C2 (configuration not stated) | 4.94 | 16.4 µM | 4.44 | 17.3 µM | 5.31 | 19.4 µM | 3.69 µM | 13.8 µM | 5.82 | 26.5 µM | – | – | 3.47 | 16.3 µM | 5.43 | 18.1 µM | 4.48 | 14.8 µM | 2.67 | 4.87 µM |
| COc1cc2c(cc1OCCCCn1c(-c3cccs3)nc3ccccc31)N=C[C@@H]1CCCN1C2=O | 2.81 | 7.73 µM | 1.68 | 4.76 µM | 1.22 | 2.54 µM | 1.92 µM | 5.38 µM | 1.23 | 5.34 µM | – | – | 1.72 | 4.29 µM | 1.32 | 6.74 µM | 1.77 | 10.1 µM | 2.54 | 5.9 µM |
| O=C(O)c1ccc(Oc2nc3ccccc3s2)cc1 | – | > 100 µM | – | > 100 µM | – | – | – | > 100 µM | – | > 100 µM | – | > 100 | – | > 100 µM | – | > 100 µM | – | > 100 µM | – | > 100 µM |
| CC1(C)OC2C(CO)OC(n3ccc(N)nc3=O)C2O1 (configuration not stated) | – | > 100 µM | – | > 100 µM | – | – | – | > 100 µM | – | > 100 µM | – | > 100 | – | > 100 µM | – | > 100 µM | – | > 100 µM | – | > 100 µM |
